Molecules are shown by their SMILES. pEC50, pIC50: −log10 of the molar value.

The subject of one data set is TRPV3. To be noted: TRPV3 agonist, relatively weak and nonspecific across TRPs; cited from earlier work.
A further data set has as its target T1, human TRPV3 (Homo sapiens, UniProt Q8NET8).
T1 construct: expressed in transfected cells
T1 sequence (Q8NET8 1-790): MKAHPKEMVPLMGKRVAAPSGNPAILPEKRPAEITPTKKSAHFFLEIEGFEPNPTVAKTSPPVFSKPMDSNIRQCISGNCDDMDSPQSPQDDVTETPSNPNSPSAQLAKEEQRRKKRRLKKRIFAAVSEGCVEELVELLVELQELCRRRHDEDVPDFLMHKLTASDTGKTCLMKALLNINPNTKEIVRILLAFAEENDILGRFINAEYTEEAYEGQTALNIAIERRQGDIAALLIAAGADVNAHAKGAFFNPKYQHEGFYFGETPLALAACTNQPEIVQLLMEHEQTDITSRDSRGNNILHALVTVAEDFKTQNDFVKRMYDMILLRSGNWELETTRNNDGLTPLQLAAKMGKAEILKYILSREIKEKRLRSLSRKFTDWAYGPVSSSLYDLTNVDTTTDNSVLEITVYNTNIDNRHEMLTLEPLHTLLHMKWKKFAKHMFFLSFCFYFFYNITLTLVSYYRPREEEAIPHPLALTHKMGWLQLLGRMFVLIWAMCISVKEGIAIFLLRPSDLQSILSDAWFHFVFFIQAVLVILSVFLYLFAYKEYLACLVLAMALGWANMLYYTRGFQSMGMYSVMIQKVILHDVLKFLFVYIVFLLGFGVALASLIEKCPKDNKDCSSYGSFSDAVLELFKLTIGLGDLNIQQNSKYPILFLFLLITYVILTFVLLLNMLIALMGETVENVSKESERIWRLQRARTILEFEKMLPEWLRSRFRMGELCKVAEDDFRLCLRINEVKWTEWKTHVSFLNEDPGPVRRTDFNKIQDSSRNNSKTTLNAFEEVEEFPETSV
As to the kind of experiment: In vitro antagonism of recombinant human TRPV3 activation (FLIPR Tetra calcium assay). Type of data set: cell-based. The note with it: HEK293 cells stably expressing human TRPV3; agonist 2-APB at 80 μM; actual measured value shown parenthetically; in most cases average of at least two runs; read-out: IC50. An outline of the steps:
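HEK293 cells stably expressing human TRPV3, loaded with Calcium-4 dye for 90–120 min, received compound in DPBS, then 80 μM 2-APB (EC80) 3 min later. Max-minus-min fluorescence expressed as % of 2-APB response without antagonist; IC50 values mostly averages of n≥2 runs.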

Data set [1] can be described thus: In vitro human microsomal stability assay. Format: in vitro ADME. The note with it: human, microsomes, 0.5 h, 0.5 μM, pH 7.4. An outline of the steps:
(§1)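 Compound is mixed with liver microsomes (human, or rat of the Sprague-Dawley strain). The mixture is then held at 37° C. in the presence of NADPH. Time-zero plates also receive NADPH.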

Data set [2] in a line: In vitro rat microsomal stability assay. Format: in vitro ADME, rat (Sprague-Dawley). The note with it: Sprague-Dawley, rat, microsomes, 0.5 h, 0.5 μM, pH 7.4. In a few lines: as §1
Data set [3] deals with chronic constriction injury (CCI) model of neuropathic pain. The data set is described as follows: In vivo chronic constriction injury (CCI) model of neuropathic pain, mechanical allodynia (von Frey). Details: species or system CD1 mice. To be noted: Mus musculus, po, 1 h, 100 mg/kg oral dose, mechanical allodynia 1 hour after dosing, CCI mice, average of eight mice; vehicle 0%, control 100%; read-out: % EFFECT. Here is the method: Test compounds were evaluated for analgesic effect in an in vivo chronic constriction injury (CCI) model of neuropathic pain. CD1 mice (Charles River) were used for these studies. Prior to testing (2-4 weeks) animals underwent a surgical procedure consisting of approximately 3 loose ligatures around the sciatic nerve. Following sterilization procedures, under isofluorane anesthetic, a 1.5 cm incision was made dorsal to the pelvis. The biceps femoris and gluteous superficialis (right side) were separated and the sciatic nerve exposed, isolated, and 2-4 loose ligatures (5-0 chromic gut) with less than 1 mm spacing were placed around it. Following hemostasis, the wound was sutured (layer of muscle closed with 5-0 nylon suture, and the wound closed with surgical staples) and coated with iodine. The mice were allowed to recover on a warming plate and were returned to their home cages (soft bedding) when able to walk on their own.
Two to four weeks after the surgery, test compound was administered orally (PO) in these mice, and mechanical allodynia was evaluated 1 hour after oral dosing where the threshold to response was assessed using calibrated von Frey monofilaments. The von Frey monofilaments were applied to the hind paw at increasing forces until the animal responded by lifting its paw. Normally, the force of the von Frey monofilament was innocuous and only in the altered state (allodynia or hyperalgesia) did the animals respond to this stimulation. […] At the end of the experiment, after behavioral testing, plasma (and in some instances brain tissue) was taken for exposure analysis.
Each test compound was evaluated in eight different mice. The data reported in Table 3 represent the average value of the approximate percent effect of each compound in relieving neuropathic pain in mice receiving 100 mg/kg oral dose of the test compound. The grams of force needed to elicit a withdrawal response from the injured mouse that was challenged with vehicle was assigned a 0% effect, while the grams of force needed to elicit a withdrawal response from the control was given a 100% effect.

The term pEC50 denotes the negative decadic logarithm of the EC50, by convention in mol/L. For the molecule `c1ccc(B(OB(c2ccccc2)c2ccccc2)c2ccccc2)cc1` [DPBA, diphenylboronic anhydride], in the data set with TRPV3, the negative logarithm of the EC50 (pEC50) is approximately 4.40.

As a reminder, the pIC50 is the IC50 on a negative log10 scale, so that one unit is a factor of ten. Turning to `OC1CC(c2cc(C(F)(F)F)ccn2)(C(O)c2ccccn2)C1` [Example 283, trans-3-[(S)-hydroxy(pyridin-2-yl)methyl]-3-[4-(trifluoromethyl)pyridin-2-yl]cyclobutanol], the pIC50 on human TRPV3 was 6.16. Also, the “HUMAN MICROSOMAL STABILITY (% REMAINING AFTER 30 MINUTES)” value in data set [1] is recorded as more than 85%. Further, the “RAT MICROSOMAL STABILITY (% REMAINING AFTER 30 MINUTES)” value in data set [2] was more than 85%. Also, the inhibition in vivo at 100 mg/kg in data set [3] stood at 49%.

As for `CC1(O)CC(c2cccc(C(F)(F)F)c2)(C(O)c2ccccn2)C1` (single isomer, unassigned) [Example 236], at human TRPV3, the pIC50 was 6.12. Also, in data set [1], the “HUMAN MICROSOMAL STABILITY (% REMAINING AFTER 30 MINUTES)” value turned out to be 54%. The “RAT MICROSOMAL STABILITY (% REMAINING AFTER 30 MINUTES)” value in data set [2] was 41%. For the same molecule, the inhibition in vivo at 100 mg/kg in data set [3] was 33%.

As to `CC1(O)CC(c2ccc(C(F)(F)F)cc2)(C(O)c2ccccn2)C1` (single isomer, unassigned) [Example 232], the pIC50 at human TRPV3 is 5.71. For the same molecule, in data set [1], the “HUMAN MICROSOMAL STABILITY (% REMAINING AFTER 30 MINUTES)” value came to 80%. Also, the “RAT MICROSOMAL STABILITY (% REMAINING AFTER 30 MINUTES)” value in data set [2] worked out at 67%. The inhibition in vivo at 100 mg/kg in data set [3] amounted to 65%.

`CN[C@@H]1CCC[C@H]1[C@@H](O)C1(c2ccc(Cl)c(Cl)c2)CCC1` [Example 228, (R)-[1-(3,4-dichlorophenyl)cyclobutyl][(1R,2R)-2-(methylamino)-cyclopentyl]methanol]: on human TRPV3, the pIC50 is 5.60. In addition, in data set [1], the “HUMAN MICROSOMAL STABILITY (% REMAINING AFTER 30 MINUTES)” value is 70%. In addition, in data set [2], the “RAT MICROSOMAL STABILITY (% REMAINING AFTER 30 MINUTES)” value turned out to be 25%. In addition, the inhibition in vivo at 100 mg/kg in data set [3] stood at 52%.

On to `NCCOB(c1ccccc1)c1ccccc1` [Example 2-APB, 2-aminoethoxydiphenylborate], for which the pEC50 in the data set on TRPV3 is approximately 4.40.
